The target of one assay is T1, human isoQC (S53-L382) (Homo sapiens, UniProt Q9NXS2).
T1 construct: enzymatically active region of human isoQC (S53-L382; see, e.g., Huang et al., 2011); GST-Enterokinase site (N, cleaved yes); made in house; host or cells: E. coli
Kind of assay: Assay 3 - isoQC potency, fluorescent enzymatic assay. The assay is classed as biochemical. As to conditions: fluorescent read-out; read-out: isoQc Pot. Assay No. 3. The protocol:
For this assay specifically, isoQC production was performed slightly different than described in the general methods: The Golgi luminal, enzymatically active region of human isoQC (S53-L382; see, e.g., Huang et al., 2011) was obtained by expression in E. coli of an N-terminally GST Enterokinase and C-terminally 6×His tagged construct in the pET41(+) vector and subsequent purification using Ni-NTA IMAC. Enterokinase digestion ensued, followed by another Ni-NTA IMAC purification, Superdex75 based size exclusion and finally a spin concentration using a 10 kDa molecular weight cutoff. The final protein is formulated in 50 mM Tris-HCl, 150 mM NaCl, 50% Glycerol, pH 7.8.
(§1) Pyroglutamylation was measured by conversion of glutamine-4-amino-7-methylcoumarine (H-Gln-AMC, Bachem) to pyroglutamyl-AMC, which is subsequently a specific substrate for pyroglutamylaminopeptidase (pGAPase, Qiagen), releasing free AMC which can be fluorescently detected. For a typical inhibition assay, 7.5 μL aliquots of threefold dilutions of test compound in 50 mM Tris pH8 buffer were plated in 384-well plates. 15 μL 20 μM h-Gln-AMC (diluted from a 40 mM stock dissolved in 25 mM HEPES using 50 mM Tris-HCl pH 8.0) was added to each well. Finally, 7.5 μL, 3 ng/μL recombinant isoQC enzyme was added and the reaction mixture was incubated for 1 hour at 37° C. A 5 minute incubation at 98° C. was then performed to denature the isoQC enzyme and stop the reaction.
(§2) To detect the amount of pyroglutamyl-AMC formed, a 0.125 U/mL pGAPase enzyme diluted in 50 mM Tris-HCl pH 8.0 containing 10 mM dithiothreitol (DTT) solution was prepared. 25 μL of the pyroglutamylation reaction mixture was transferred into an empty plate and to that, 25 μL of the pGAPase enzyme solution was added. Plates were then incubated for 25 minutes at room temperature before fluorescence readings were taken on an Envision2 plate reader with excitation set at 380 nm and emission at 450 nm.
DMSO concentrations during the assay never exceeded 1% and activities were compared to controls containing only the same amount of DMSO and no test compound. Controls were taken along containing pyroglutamylated-AMC (Bachem, dissolved at 10 mM in DMSO) instead of H-Gln-AMC to control for pGAPase inhibition. IC50 values are calculated using non-linear regression analysis with GraphPad Prism software.

Assay [1] addresses T2, Recombinant QC enzyme (residues 33-361 of uniprot ID Q16769) (Homo sapiens, UniProt Q16769).
T2 construct: bacterial expression of residues 33-361 of uniprot ID Q16769; His tag (cleaved yes); made in house; host or cells: bacterial expression (pET32a)
The assay can be described thus: Assay 5 - QC potency, fluorescent enzymatic assay. The format is biochemical. As to conditions: fluorescent read-out; read-out: QC Pot. Assay No. 5.
Description: Recombinant QC enzyme was produced by bacterial expression of residues 33-361 of uniprot ID Q16769, fused to a His tag, codon optimized and cloned into the pET32a plasmid backbone. After scale-up, expression and lysis, protein was purified by Ni-NTA IMAC, dialysed in the presence of Factor Xa, further purified by Ni-NTA reverse IMAC and finally filtrated for size on a Superdex 200 16/60 column. Final protein was concentrated using a spin concentrator at 10 kDa molecular weight cutoff and formulated in 150 mM NaCl, 50 mM Tris-HCl, 50% Glycerol, pH 8.0.
as §1, with “QC” for “isoQC”
as §2
DMSO concentrations during the assay never exceeded 1% and activities were compared to controls containing only the same amount of DMSO and no test compound. Controls were taken along containing pyroglutamylated-AMC (Bachem, dissolved at 10 mM in DMSO) instead of H-Gln-AMC to control for pGAPase inhibition.
IC50 values are calculated using non-linear regression analysis with GraphPad Prism software.

Assay [2] has as its system pyroglutamylated CD47 (pE-CD47) in KBM7 cells. The assay can be described thus: Assay 6 - cell-based potency assay (pE-CD47 CC2C6 staining vs total CD47). As to conditions: Homo sapiens, KBM-7, 72 h, CC2C6 signal, read-out: Cell Pot. Assay No. 6. Details: species or system human. The method in brief: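 KBM7 cells received a 10-point 2-fold compound series for 72 h at 37 °C, then were stained with anti-CD47 clones 2D3 (total) and CC2C6 (pyroglutamylated) and analysed by flow cytometry on DAPI-negative cells. MFI was scaled between wild-type and CD47- or QPCTL-knockout cells; IC50 came from 3-parameter logistic fit of CC2C6 signal, top fixed at 1.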

This note sets out measurements from patent US20230077723A1, “N-SUBSTITUTED-3,4-(FUSED 5-RING)-5-PHENYL-PYRROLIDINE-2-ONE COMPOUNDS AS INHIBITORS OF ISOQC AND/OR QC ENZYME” (Scenic Immunology B.V., priority 2019, published 2023).

T2 sequence (Q16769 33-361): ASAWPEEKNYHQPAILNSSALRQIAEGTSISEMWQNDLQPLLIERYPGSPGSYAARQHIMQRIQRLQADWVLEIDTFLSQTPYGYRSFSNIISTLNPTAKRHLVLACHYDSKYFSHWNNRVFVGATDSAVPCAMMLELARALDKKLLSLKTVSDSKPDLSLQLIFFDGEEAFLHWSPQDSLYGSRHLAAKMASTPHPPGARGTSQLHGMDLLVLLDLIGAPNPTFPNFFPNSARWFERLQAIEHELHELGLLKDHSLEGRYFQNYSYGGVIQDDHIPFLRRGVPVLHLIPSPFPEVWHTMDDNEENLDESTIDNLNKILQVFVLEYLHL
T1 sequence (Q9NXS2 53-382): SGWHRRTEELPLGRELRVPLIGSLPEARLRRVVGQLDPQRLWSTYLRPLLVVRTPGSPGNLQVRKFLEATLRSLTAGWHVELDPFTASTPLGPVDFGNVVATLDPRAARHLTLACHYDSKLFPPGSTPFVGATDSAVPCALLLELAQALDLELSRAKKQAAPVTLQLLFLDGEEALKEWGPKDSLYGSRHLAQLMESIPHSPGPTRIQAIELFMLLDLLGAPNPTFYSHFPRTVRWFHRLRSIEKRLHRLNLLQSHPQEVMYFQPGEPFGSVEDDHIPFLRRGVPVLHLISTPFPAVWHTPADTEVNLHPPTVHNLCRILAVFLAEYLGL

Take `Cc1[nH]nc2c1C(c1ccc(N3CCC(F)(F)C3)c(F)c1F)N(c1ccc3[nH]cnc3c1)C2=O` (centres unmarked) [FRPPO-161]: the IC50 on human isoQC (S53-L382) was 0.025 to 0.1 µM; in assay [1], 0.025 to 0.1 µM; in assay [2], less than 1 µM.

With `Cc1nn(C)c2c1C(c1ccc(-c3cnc(C(F)(F)F)s3)cc1F)N(c1ccc3[nH]cnc3c1)C2=O` (centres unmarked) [FRPPO-164], the IC50 is 0.1 to 5 µM on human isoQC (S53-L382), 0.1 to 5 µM in assay [1] and less than 1 µM in assay [2].

Take `Cc1nn(C)c2c1C(c1ccc(-c3cnn(C(F)(F)F)c3)cc1F)N(c1ccc3[nH]cnc3c1)C2=O` (centres unmarked) [FRPPO-165]: the IC50 at human isoQC (S53-L382) was 0.025 to 0.1 µM; in assay [1], 0.1 to 5 µM; in assay [2], less than 1 µM.

As to `Cc1nn(C)c2c1C(c1ccc(-n3cc(C(F)(F)F)cn3)cc1F)N(c1ccc3[nH]cnc3c1)C2=O` (centres unmarked) [FRPPO-166], the results for the IC50 (on human isoQC (S53-L382); in assay [1]; in assay [2]) were 0.1 to 5 µM, 0.1 to 5 µM and 1 to 5 µM, respectively.

In the case of `O=C1c2[nH]ncc2C(c2ccc(N3CCC(F)(F)C3)cc2F)N1c1ccc2[nH]cnc2c1` (centres unmarked) [FRPPO-171], the IC50 (on human isoQC (S53-L382); in assay [1]) was 0.1 to 5 µM throughout.

Consider `COc1n[nH]c2c1C(c1ccc(N3CCC(F)(F)C3)cc1F)N(c1ccc3[nH]cnc3c1)C2=O` (centres unmarked) [FRPPO-173], for which the IC50 (at human isoQC (S53-L382); in assay [1]) was 0.025 to 0.1 µM in each case.

Take `Cc1noc2c1C(c1ccc(-c3cnn(C(F)(F)F)c3)cc1F)N(c1ccc3[nH]cnc3c1)C2=O` (centres unmarked) [FRPPO-176]: the IC50 at human isoQC (S53-L382) fell in the range of 0.025 to 0.1 µM; in assay [1], 0.1 to 5 µM.

In the case of `Cc1onc2c1C(c1ccc(-c3cnn(C(F)(F)F)c3)cc1F)N(c1ccc3[nH]cnc3c1)C2=O` (centres unmarked) [FRPPO-177], the IC50 at human isoQC (S53-L382) is less than 0.025 µM; in assay [1] it was 0.025 to 0.1 µM.
